Results reported in a melting point compilation (Tetko et al.).

Row | Compound | melting point [°C]
1 | Cc1cc(C)cc(CC(=O)O)c1 | 101
2 | Cn1ccccc1=O | 31
3 | C#CCCCC#C | -85
4 | COc1ccc(C(c2c(O)cc(C)oc2=O)c2c(O)cc(C)oc2=O)cc1 | 163 to 165
5 | Oc1cccc(N2CCNCC2)c1 | 207
6 | COc1ccccc1C1CCNCC1 | 54 to 55
7 | Oc1ccc(C(F)(F)F)cc1 | 46
8 | CCCOc1cc(O)cc(OCCC)c1 | 43 to 48
9 | NC(=O)C1C2C=CC(C2)C1N (configuration not stated) | 235 to 253
10 | C1CN(CCN2CCOCC2)CCO1 | 75
11 | NC(=O)C(Cl)(Cl)Cl | 142
12 | Cc1cc(S(=O)(=O)Cc2ccc(N)cc2)c(C)cc1Cl | 156 to 158
13 | CC1CCC(C(C)C)C(OC(=O)C2=CCC(C(=O)OC3CC(C)CCC3C(C)C)=CC2)C1 (configuration not stated) | 68
14 | Cc1n[nH]c(SCC#N)n1 | 158 to 160
15 | Cc1nc(N(C)C)nc(OC(=O)N(C)C)c1C | 91.6
16 | O=c1occcc1O | 93.8
17 | CC(=O)N1N=C(c2ccc3ccccc3c2)C[C@@H]1c1ccc(Cl)c(Cl)c1 | 242
18 | NC(c1ccccc1)c1ccccc1 | 34
19 | COc1nc(NC(C)C)nc(NC(C)C)n1 | 91.5
20 | CC(C)(C)OC(=O)N1CCC(Oc2ccccc2[N+](=O)[O-])CC1 | 91 to 93
21 | Cc1cc(I)c(C)c(C)c1C | 31
22 | O=C(COc1ccc(Cl)cc1)Nc1nc2ccccc2s1 | 139
23 | COc1ccc(C=C2N=C(c3ccccc3)OC2=O)cc1 | 151 to 152
24 | C=CCOC(=O)CCC | -80
25 | COc1cccc(P(c2cccc(OC)c2)c2cccc(OC)c2)c1 | 115
26 | COc1ccccc1NC(=S)c1cc(C(C)(C)C)c(O)c(C(C)(C)C)c1 | 185 to 186

Row | Compound | melting point [°C]
27 | CCOC(=O)C(O)(c1ccc(N)c(OC)c1)C(F)(F)F (configuration not stated) | 97 to 99
28 | Nc1cc(Cl)cnc1Cl | 124 to 125
29 | Cn1ncc2c(NNC3=CC(=O)c4ccccc4C3=O)ncnc21 | 226
30 | Cc1cc2c(c(C)c1C)C(=O)C2 | 103
31 | O=CC(C=O)c1ccc(C(=O)O)cc1[N+](=O)[O-] | 199 to 205
32 | C1CCN(C2CCNCC2)CC1 | 68
33 | Cc1ccc(C(=O)/C=C/c2ccc(-c3ccc(Cl)cc3)o2)o1 | 171
34 | NC(=O)CCCCC(N)=O | 226
35 | CC(C)C(N)CC(=O)O (configuration not stated) | 206 to 209
36 | NC(=O)c1ccnc(I)c1 | 165
37 | O=C(O)COc1ccccc1[N+](=O)[O-] | 158
38 | NNc1ccc(S(=O)(=O)O)cc1 | 286
39 | C=CC(=O)N1CCN(C(=O)C=C)CC1 | 93
40 | COc1cc(/C=C/C(=O)CC(=O)/C=C/c2ccc(O)c(OC)c2)ccc1O | 183
41 | COC(=O)[C@@H]1C[C@@H]2CCCN2[C@@]12C(=O)c1cccc3cccc2c13 | 145
42 | CCCCCCCCCCCCCCCCCC(=O)OCCO | 60.5
43 | CC12CCC(O)CC1CCC1C2CCC2(C)C1CCC21OCCO1 (configuration not stated) | 151
44 | O=S(=O)(Cl)c1ccc(-c2ccc(F)cc2)cc1 | 82 to 84
45 | CCCCC(=O)NC | -26
46 | COc1cc2c(c(O)c1OC)CCN(C)C2C (configuration not stated) | 152
47 | CC1C=Cn2c(cc3ccccc3c2=O)C1 (configuration not stated) | 89
48 | COc1ccc(C(=O)c2noc(-c3ccc([N+](=O)[O-])cc3)c2S(=O)(=O)c2ccccc2)cc1 | 176
49 | CCCC(C)(O)C#CC(C)(O)CCC (configuration not stated) | 68.5
50 | O=C(c1ccc(Cl)cc1)c1noc(-c2ccc(Br)cc2)c1S(=O)(=O)c1ccccc1 | 125
51 | Nc1cc(F)c(C(F)(F)F)c(F)c1 | 66
52 | COc1ccc(CNC(=O)c2cc([N+](=O)[O-])cc([N+](=O)[O-])c2)cc1 | 151
